The source of these data is ChEMBL document CHEMBL3217554, “Fast and effective identification of the bioactive compounds and their targets from medicinal plants via computational chemical biology approach” (Medchemcomm, 2011).

SMILES strings stand for the structures.

The target in the assay is Dipeptidyl peptidase 4 (Homo sapiens, UniProt P27487). The experiment in a line: Inhibition of human DPP4 using H-Gly-Pro-AMC peptide substrate assessed as increase in fluorescence for 20 mins by fluorimetric assay.
Dipeptidyl peptidase 4, sequence (P27487 whole entry): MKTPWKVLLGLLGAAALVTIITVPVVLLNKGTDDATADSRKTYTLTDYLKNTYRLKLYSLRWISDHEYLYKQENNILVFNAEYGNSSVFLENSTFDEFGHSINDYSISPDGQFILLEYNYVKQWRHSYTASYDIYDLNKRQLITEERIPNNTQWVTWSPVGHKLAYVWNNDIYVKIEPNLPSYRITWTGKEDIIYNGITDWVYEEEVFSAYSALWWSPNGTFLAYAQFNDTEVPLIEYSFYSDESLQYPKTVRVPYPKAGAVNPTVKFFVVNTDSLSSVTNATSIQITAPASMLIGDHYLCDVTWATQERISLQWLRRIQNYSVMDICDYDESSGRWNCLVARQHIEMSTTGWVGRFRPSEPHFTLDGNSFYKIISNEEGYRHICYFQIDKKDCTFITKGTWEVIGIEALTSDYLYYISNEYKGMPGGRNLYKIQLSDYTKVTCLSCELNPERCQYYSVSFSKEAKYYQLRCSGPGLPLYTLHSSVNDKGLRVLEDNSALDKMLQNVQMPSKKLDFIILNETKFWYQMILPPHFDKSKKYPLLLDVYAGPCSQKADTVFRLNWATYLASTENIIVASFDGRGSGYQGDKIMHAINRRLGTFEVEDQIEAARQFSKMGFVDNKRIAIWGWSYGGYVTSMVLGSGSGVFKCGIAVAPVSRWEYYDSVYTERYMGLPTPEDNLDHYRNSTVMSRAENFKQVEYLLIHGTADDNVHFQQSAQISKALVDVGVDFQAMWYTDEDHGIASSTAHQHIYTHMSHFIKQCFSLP
Consider `O=C(CC(O)CCc1ccccc1)c1ccc(O)cc1` (stereo not drawn), for which the IC50 is 38.4 µM.
As for `COC(=O)C1(O)CC(O)C(O)C(OC(=O)/C=C/c2ccc(O)c(O)c2)C1` (stereo not drawn), the IC50 was found to be 41.4 µM.
With `CCOC(=O)c1c(O)cc(O)c2c1OC(c1ccc(O)cc1)CC2` (stereo not drawn), the IC50 amounted to 114 µM.
Under `CC[C@H](CC[C@@H](C)[C@H]1CC[C@H]2[C@@H]3CC=C4C[C@@H](O)CC[C@]4(C)[C@H]3CC[C@]12C)C(C)C` [BETA-SITOSTEROL] stands 28.8 µM.
As for `C=C(C)[C@@H]1CC[C@]2(C(=O)O)CC[C@]3(C)[C@H](CC[C@@H]4[C@@]5(C)CC[C@H](O)C(C)(C)[C@@H]5CC[C@]43C)[C@@H]12` [BETULINIC ACID], the IC50 was determined as 55.8 µM.
Take `O=C(O)/C=C/c1ccc(O)cc1` [COUMARIC ACID]: the IC50 amounted to 83.2 µM.
`COc1cc2cc(Oc3ccc4ccc(=O)oc4c3)c(=O)oc2cc1O` [DAPHNORETIN]: the IC50 was 87.1 µM.
On to `COc1ccc2c(c1OC)CN(C)c1c-2ccc2cc3c(cc12)OCO3` [DIHYDROCHELERYTHRINE], for which the IC50 worked out at 56.2 µM.
Consider `CCOC(=O)/C=C/c1ccc(O)c(O)c1` [ETHYL CAFFEATE], for which the half-maximal inhibitory concentration (IC50) is 87.7 µM.
In the case of `COc1cc(O)c(C(=O)/C=C/c2ccc(O)cc2)c(OC)c1` [FLAVOKAWAIN C] it was 33.1 µM; in that of `O=C(/C=C/c1ccc(O[C@@H]2O[C@H](CO)[C@@H](O)[C@H](O)[C@H]2O)cc1)c1ccc(O)cc1O` [ISOLIQUIRITIN], 26.9 µM.
In the case of `O=c1c(O)c(-c2cc(O)c(O)c(O)c2)oc2cc(O)cc(O)c12` [MYRICETIN] it was 37.1 µM; in that of `O=c1c(O)c(-c2ccc(O)c(O)c2)oc2cc(O)cc(O)c12` [QUERCETIN], 32.7 µM.
